Our source for the IC50 values is ChEMBL document CHEMBL1155756, “Pacovatinins A-C, new labdane diterpenoids from the seeds of Renealmia exaltata” (J Nat Prod, 2001).

One assay relates to L1210. The experiment in a line: Cytotoxicity against mouse L1210 cells. It counts as functional, cell-based.
The next assay deals with KB. As to the kind of experiment: Cytotoxicity against human KB cells. In kind it is functional, cell-based.

The IC50 is the concentration at which inhibition is half-maximal. A low value points to greater potency.

≈ marks a conversion by molar mass, not a printed value.

With `C=C1[C@@H](O)C[C@H]2C(C)(C)[C@@H](O)CC[C@]2(C)[C@H]1C/C=C1\CCOC1=O` [PACOVATININ B], the IC50 in the assay with L1210 and with KB was more than 10 µg/mL in each case.
Regarding `C=C1[C@@H](O)C[C@H]2C(C)(C)C(=O)CC[C@]2(C)[C@H]1C/C=C1/CCOC1=O` [PACOVATININ C], the values for the concentration for half-maximal inhibition (IC50) with L1210 and with KB were 4.7 µg/mL (≈ 14.1 µM) and 7.3 µg/mL (≈ 22 µM), respectively.
